Test results as given in publication PMC6325219, “Preclinical Characterization of NVR 3-778, a First-in-Class Capsid Assembly Modulator against Hepatitis B Virus” (Antimicrobial Agents and Chemotherapy, 2018).

Legend:
[1] = Hepatocyte stability, dog hepatocytes; format: in vitro ADME; settings: 120 min incubation
Description: Following in vitro incubation for 120 min with human, mouse, or dog hepatocytes, >85% of the NVR 3-778 remained intact. […] The fewest number of metabolites was found following incubation with human hepatocytes, where 92% of the NVR 3-778 remained after a 120-min incubation.

plasma proteins = test: Plasma protein binding by equilibrium dialysis, human; format: in vitro ADME; settings: 2 µM
Text: The binding of NVR 3-778 to the plasma proteins of mouse, rat, dog, monkey, and human was investigated by equilibrium dialysis.

O=C(Nc1cc(F)c(F)c(F)c1)c1ccc(F)c(S(=O)(=O)N2CCC(O)CC2)c1 [NVR 3-778]
NVR 3-778 remaining intact [1]: > 85%
Mean percent binding to plasma proteins (plasma proteins): approximately 98%
